# Results reported in patent US4439426A, “Semisynthetic macrolidic antibiotics, intermediate compounds for their preparation and related pharmaceutical compositions containing them” (priority 1981, dated 1984).
# Columns and labels:
# Type in all cases: cell-based
# [1] = system: Streptococcus faecalis LRP 7; test: Bacteriostatic power in solid medium (MIC); details: solid medium
# Text: (§1) the bacteriostatic power, expressed as the minimum inhibiting concentration (MIC) against both aerobic and anaerobic, Gram positive and Gram negative, bacterial stocks: the related results are reported in the tables 2 and 3.
# [2] = system: Corynebacterium diphteriae LRP 24; test: Bacteriostatic power in solid medium (MIC); details: solid medium
# Text: as §1
# [3] = system: Fusobacteriumnecrophroum ATCC 27852 LRP 210; test: Bacteriostatic power in solid medium (MIC); details: solid medium; anaerobic
# Text: as §1
# [4] = system: Streptococcus pneumoniae ATCC 6303 LRP 53; test: Bacteriostatic power in solid medium (MIC); details: solid medium
# Text: as §1
# [5] = system: Staphylococcus aureus ATCC 14154 LRP 78; test: Bacteriostatic power in solid medium (MIC); details: solid medium; Erythromycin resistant
# Text: as §1
# [6] = system: Mycoplasma hominis I ATCC 14027 LRP 211; test: Bacteriostatic power in solid medium (MIC); details: solid medium
# Text: as §1
# [7] = system: Streptococcus pyogenes ATCC 8668 LRP 197; test: Bacteriostatic power in solid medium (MIC); details: solid medium
# Text: as §1
# [8] = system: Bacillus subtilis LRP 25; test: Bacteriostatic power in solid medium (MIC); details: solid medium
# Text: as §1
# [9] = system: Bacteroides fragilis ATCC 23745 LRP 205; test: Bacteriostatic power in solid medium (MIC); details: solid medium; anaerobic
# Text: as §1
# [10] = system: Proteus vulgaris ATCC 6380 LRP 13; test: Bacteriostatic power in solid medium (MIC); details: solid medium
# Text: as §1
# [11] = system: Acholeplasma laidlawii ATCC 23206 LRP 204; test: Bacteriostatic power in solid medium (MIC); details: solid medium
# Text: as §1
# [12] = system: Haemophilus influenzae ATCC 19418 LRP 213; test: Bacteriostatic power in solid medium (MIC); details: solid medium
# Text: as §1
# [13] = system: Streptococcus faecalis subsp. zymogenes ATCC 12958 LRP 61; test: Bacteriostatic power in solid medium (MIC); details: solid medium
# Text: as §1
# [14] = system: Neisseria gonorrhoeae ATCC 19424 LRP 214; test: Bacteriostatic power in solid medium (MIC); details: solid medium
# Text: as §1
# [15] = system: Staphylococcus aureus ATCC 6538P LRP 39; test: Bacteriostatic power in solid medium (MIC); details: solid medium
# Text: as §1
# [16] = system: Escherichia coli LRP 50; test: Bacteriostatic power in solid medium (MIC); details: solid medium
# Text: as §1
# [17] = system: Micrococcus luteus ATCC 15957 LRP 193; test: Bacteriostatic power in solid medium (MIC); details: solid medium; Erythromycin resistant
# Text: as §1
# [18] = system: Streptococcus pneumoniae ATCC 6303 LRP 52; test: Bacteriostatic power in solid medium (MIC); details: solid medium
# Text: as §1
# [19] = system: Staphylococcus aureus ATCC 6538P LRP 14; test: Bacteriostatic power in solid medium (MIC); details: solid medium; Penycilline resistant
# Text: as §1
# [20] = system: Pseudomonas aeruginosa LRP 9; test: Bacteriostatic power in solid medium (MIC); details: solid medium
# Text: as §1
# [21] = system: Klelsiella pneumoniae LRP 54; test: Bacteriostatic power in solid medium (MIC); details: solid medium
# Text: as §1
# [22] = system: Streptococcus pneumoniae ATCC 6303 LRP 35; test: Bacteriostatic power in solid medium (MIC); details: solid medium
# Text: as §1
# [23] = system: Micrococcus luteus ATCC 9341 LRP 6; test: Bacteriostatic power in solid medium (MIC); details: solid medium
# Text: as §1
# [24] = system: Streptococcus pyogenes ATCC 8668 LRP 34; test: Bacteriostatic power in solid medium (MIC); details: solid medium
# Text: as §1
# [25] = system: Streptococcus faecalis subs. zymogenes ATCC 12958 LRP 61; test: Bacteriostatic power in liquid medium (MIC); details: liquid medium
# Text: as §1
# [26] = system: Corynebacterium diphteriae LRP 24; test: Bacteriostatic power in liquid medium (MIC); details: liquid medium
# Text: as §1
# [27] = system: Staphylococcus aureus ATCC 6538 P LRP 39; test: Bacteriostatic power in liquid medium (MIC); details: liquid medium
# Text: as §1
# [28] = system: Streptococcus pneumoniae ATCC 6303 LRP 35; test: Bacteriostatic power in liquid medium (MIC); details: liquid medium
# Text: as §1
# [29] = system: Streptococcus pyogenes ATCC 8668 LRP 34; test: Bacteriostatic power in liquid medium (MIC); details: liquid medium
# Text: as §1
substance,measurement,setting,value
(8S)-8-fluoroerythromycin A carbonate [P80206 carbonate],Minimum inhibiting concentration,[1],0.097 µg/mL
same,Minimum inhibiting concentration,[2],0.024 µg/mL
same,Minimum inhibiting concentration,[3],6.25 µg/mL
same,Minimum inhibiting concentration,[4],0.012 µg/mL
same,Minimum inhibiting concentration,[5],25 µg/mL
same,Minimum inhibiting concentration,[6],25 µg/mL
same,Minimum inhibiting concentration,[7],0.024 µg/mL
same,Minimum inhibiting concentration,[8],0.049 µg/mL
same,Minimum inhibiting concentration,[9],0.78 µg/mL
same,Minimum inhibiting concentration,[10],25 µg/mL
same,Minimum inhibiting concentration,[11],0.195 µg/mL
same,Minimum inhibiting concentration,[12],6.25 µg/mL
same,Minimum inhibiting concentration,[13],0.097 µg/mL
same,Minimum inhibiting concentration,[14],0.049 µg/mL
same,Minimum inhibiting concentration,[15],0.097 µg/mL
same,Minimum inhibiting concentration,[16],3.12 µg/mL
same,Minimum inhibiting concentration,[17],25 µg/mL
same,Minimum inhibiting concentration,[18],0.012 µg/mL
same,Minimum inhibiting concentration,[19],0.097 µg/mL
same,Minimum inhibiting concentration,[20],25 µg/mL
same,Minimum inhibiting concentration,[21],12.5 µg/mL
same,Minimum inhibiting concentration,[22],0.012 µg/mL
same,Minimum inhibiting concentration,[23],0.024 µg/mL
same,Minimum inhibiting concentration,[24],0.012 µg/mL
same,Minimum inhibiting concentration,[25],0.195 µg/mL
same,Minimum inhibiting concentration,[26],0.024 µg/mL
same,Minimum inhibiting concentration,[27],0.39 µg/mL
same,Minimum inhibiting concentration,[28],0.049 µg/mL
same,Minimum inhibiting concentration,[29],0.024 µg/mL
